Series [1] has as its target Genome polyprotein (dengue virus type 2) (UniProt P29990). As to the kind of experiment: Inhibition of dengue virus serotype 2 His-tagged NS2B cofactor domain-NS3 protease expressed in Escherichia coli at 50 uM using 2-Abz-Nle-Lys-Arg-Arg-Ser-(3-NO2)-Tyr-NH2 as substrate preincubated with enzyme for 15 mins followed by substrate addition measured for every 1 sec for 15 mins by fluorescence plate reader based HPLC analysis relative to control.

Series [2] deals with Genome polyprotein (West Nile virus) (UniProt P06935). As to the kind of experiment: Inhibition of West Nile virus His-tagged NS2B cofactor domain-NS3 protease expressed in Escherichia coli at 50 uM using 2-Abz-Gly-Leu-Lys-Arg-Gly-Gly-(3-NO2)-Tyr-NH2 as substrate preincubated with enzyme for 15 mins followed by substrate addition measured for every 1 sec for 15 mins by fluorescence microplate reader based HPLC analysis relative to control.

Series [3] concerns the target T1, Prothrombin (Homo sapiens, UniProt P00734). The series can be described thus: Inhibition of thrombin (unknown origin) at 25 uM using Boc-Val-Pro-Arg-AMC as substrate preincubated with enzyme for 15 mins followed by addition of substrate by fluorescence plate reader analysis relative to control.
Series [4] concerns the target T2, Trypsin (Homo sapiens, UniProt P07477+P07478+P35030). As to the kind of experiment: Inhibition of trypsin (unknown origin) at 50 uM using Boc-Val-Pro-Arg-AMC as substrate preincubated with enzyme for 15 mins followed by addition of substrate by fluorescence plate reader analysis relative to control. The class given is protein assay.
The target of a further series is Genome polyprotein (dengue virus type 2, UniProt P29990). The series can be described thus: Inhibition of dengue virus serotype 2 His-tagged NS2B cofactor domain-NS3 protease expressed in Escherichia coli using 2-Abz-Nle-Lys-Arg-Arg-Ser-(3-NO2)-Tyr-NH2 as substrate preincubated with enzyme for 15 mins followed by substrate addition measured for every 1 sec for 15 mins by fluorescence plate reader based HPLC analysis.

Series [5] has as its target T1, Prothrombin. The series can be described thus: Inhibition of thrombin (unknown origin) using Boc-Val-Pro-Arg-AMC as substrate preincubated with enzyme for 15 mins followed by addition of substrate by fluorescence plate reader analysis.
Series [6] addresses T2, Trypsin. The series can be described thus: Inhibition of trypsin (unknown origin) using Boc-Val-Pro-Arg-AMC as substrate preincubated with enzyme for 15 mins followed by addition of substrate by fluorescence plate reader analysis. It is filed as protein assay.
Series [7] concerns the target Genome polyprotein (dengue virus type 2) (UniProt P29990). The series can be described thus: Time-dependent inhibition of dengue virus serotype 2 His-tagged NS2B cofactor domain-NS3 protease expressed in Escherichia coli at 50 uM using 2-Abz-Nle-Lys-Arg-Arg-Ser-(3-NO2)-Tyr-NH2 as substrate preincubated with enzyme for 20 to 40 mins followed by substrate addition measured for every 1 sec for 15 mins by fluorescence plate reader based HPLC analysis.

Series [8] has the same target. The series can be described thus: Inhibition of dengue virus serotype 2 His-tagged NS2B catalytic domain-NS3 protease expressed in Escherichia coli at 100 uM using 2-Abz-Nle-Lys-Arg-Arg-Ser-(3-NO2)-Tyr-NH2 as substrate preincubated with enzyme for 1 hr followed by substrate addition measured for every 1 sec for 15 mins by fluorescence plate reader based HPLC analysis relative to control.

The target is the same in series [9]. As to the kind of experiment: Reversible covalent binding affinity at dengue virus serotype 2 His-tagged NS2B cofactor domain-NS3 protease expressed in Escherichia coli assessed as acyl-enzyme adduct formation at 100 uM incubated for 5 to 30 mins by ESI-MS analysis.
The target is the same in series [10]. The series can be described thus: Reversible covalent binding affinity at dengue virus serotype 2 His-tagged NS2B cofactor domain-NS3 protease expressed in Escherichia coli assessed as acyl-enzyme adduct formation at 100 uM incubated for 20 hrs by ESI-MS analysis.
A short description of series [11]: Stability of compound in TRIS buffer assessed as half life at pH 9. The class given is physicochemical.
The nature of series [12]: Stability of compound in phosphate buffer assessed as half life at pH 11. It is filed as physicochemical.
The nature of series [13]: Stability of compound in phosphate buffer at pH 9. The class given is physicochemical.
The nature of series [14]: Stability of compound in TRIS buffer at pH 7.5. The class given is physicochemical.
Series [15] addresses Genome polyprotein (dengue virus type 2) (UniProt P29990). The series can be described thus: Reversible covalent inhibition of dengue virus serotype 2 His-tagged NS2B catalytic domain-NS3 protease expressed in Escherichia coli using 2-Abz-Nle-Lys-Arg-Arg-Ser-(3-NO2)-Tyr-NH2 as substrate preincubated initially at 100 uM with enzyme for 1 hr followed by dilution with assay buffer to achieve compound concentration of 3.33 uM prior to substrate addition measured immediately after dilution by fluorescence plate reader based HPLC analysis.

Series [16] has the same target. The series can be described thus: Reversible covalent inhibition of dengue virus serotype 2 His-tagged NS2B catalytic domain-NS3 protease expressed in Escherichia coli using 2-Abz-Nle-Lys-Arg-Arg-Ser-(3-NO2)-Tyr-NH2 as substrate preincubated initially at 100 uM with enzyme for 1 hr followed by dilution with assay buffer to achieve compound concentration of 3.33 uM prior to substrate addition measured after dilution over time by fluorescence plate reader based HPLC analysis.

Series [17] has the same target. As to the kind of experiment: Reversible covalent inhibition of dengue virus serotype 2 His-tagged NS2B catalytic domain-NS3 protease expressed in Escherichia coli at 100 uM using 2-Abz-Nle-Lys-Arg-Arg-Ser-(3-NO2)-Tyr-NH2 as substrate preincubated with enzyme for 1 hr followed by dilution prior to substrate addition measured at 120 mins after dilution by fluorescence plate reader based HPLC analysis.

The next series relates to dengue virus type 2. As to the kind of experiment: Reversible covalent binding affinity at dengue virus serotype 2 His-tagged NS2B cofactor domain-NS3 protease S135A mutant expressed in Escherichia coli assessed as acyl-enzyme adduct formation at 100 uM incubated for 24 hrs by ESI-MS analysis.

Calls of active or inactive are those of the source. The rule behind the calls is not given here.

Genome polyprotein (West Nile virus), sequence (P06935 whole entry, the tested form may be a part): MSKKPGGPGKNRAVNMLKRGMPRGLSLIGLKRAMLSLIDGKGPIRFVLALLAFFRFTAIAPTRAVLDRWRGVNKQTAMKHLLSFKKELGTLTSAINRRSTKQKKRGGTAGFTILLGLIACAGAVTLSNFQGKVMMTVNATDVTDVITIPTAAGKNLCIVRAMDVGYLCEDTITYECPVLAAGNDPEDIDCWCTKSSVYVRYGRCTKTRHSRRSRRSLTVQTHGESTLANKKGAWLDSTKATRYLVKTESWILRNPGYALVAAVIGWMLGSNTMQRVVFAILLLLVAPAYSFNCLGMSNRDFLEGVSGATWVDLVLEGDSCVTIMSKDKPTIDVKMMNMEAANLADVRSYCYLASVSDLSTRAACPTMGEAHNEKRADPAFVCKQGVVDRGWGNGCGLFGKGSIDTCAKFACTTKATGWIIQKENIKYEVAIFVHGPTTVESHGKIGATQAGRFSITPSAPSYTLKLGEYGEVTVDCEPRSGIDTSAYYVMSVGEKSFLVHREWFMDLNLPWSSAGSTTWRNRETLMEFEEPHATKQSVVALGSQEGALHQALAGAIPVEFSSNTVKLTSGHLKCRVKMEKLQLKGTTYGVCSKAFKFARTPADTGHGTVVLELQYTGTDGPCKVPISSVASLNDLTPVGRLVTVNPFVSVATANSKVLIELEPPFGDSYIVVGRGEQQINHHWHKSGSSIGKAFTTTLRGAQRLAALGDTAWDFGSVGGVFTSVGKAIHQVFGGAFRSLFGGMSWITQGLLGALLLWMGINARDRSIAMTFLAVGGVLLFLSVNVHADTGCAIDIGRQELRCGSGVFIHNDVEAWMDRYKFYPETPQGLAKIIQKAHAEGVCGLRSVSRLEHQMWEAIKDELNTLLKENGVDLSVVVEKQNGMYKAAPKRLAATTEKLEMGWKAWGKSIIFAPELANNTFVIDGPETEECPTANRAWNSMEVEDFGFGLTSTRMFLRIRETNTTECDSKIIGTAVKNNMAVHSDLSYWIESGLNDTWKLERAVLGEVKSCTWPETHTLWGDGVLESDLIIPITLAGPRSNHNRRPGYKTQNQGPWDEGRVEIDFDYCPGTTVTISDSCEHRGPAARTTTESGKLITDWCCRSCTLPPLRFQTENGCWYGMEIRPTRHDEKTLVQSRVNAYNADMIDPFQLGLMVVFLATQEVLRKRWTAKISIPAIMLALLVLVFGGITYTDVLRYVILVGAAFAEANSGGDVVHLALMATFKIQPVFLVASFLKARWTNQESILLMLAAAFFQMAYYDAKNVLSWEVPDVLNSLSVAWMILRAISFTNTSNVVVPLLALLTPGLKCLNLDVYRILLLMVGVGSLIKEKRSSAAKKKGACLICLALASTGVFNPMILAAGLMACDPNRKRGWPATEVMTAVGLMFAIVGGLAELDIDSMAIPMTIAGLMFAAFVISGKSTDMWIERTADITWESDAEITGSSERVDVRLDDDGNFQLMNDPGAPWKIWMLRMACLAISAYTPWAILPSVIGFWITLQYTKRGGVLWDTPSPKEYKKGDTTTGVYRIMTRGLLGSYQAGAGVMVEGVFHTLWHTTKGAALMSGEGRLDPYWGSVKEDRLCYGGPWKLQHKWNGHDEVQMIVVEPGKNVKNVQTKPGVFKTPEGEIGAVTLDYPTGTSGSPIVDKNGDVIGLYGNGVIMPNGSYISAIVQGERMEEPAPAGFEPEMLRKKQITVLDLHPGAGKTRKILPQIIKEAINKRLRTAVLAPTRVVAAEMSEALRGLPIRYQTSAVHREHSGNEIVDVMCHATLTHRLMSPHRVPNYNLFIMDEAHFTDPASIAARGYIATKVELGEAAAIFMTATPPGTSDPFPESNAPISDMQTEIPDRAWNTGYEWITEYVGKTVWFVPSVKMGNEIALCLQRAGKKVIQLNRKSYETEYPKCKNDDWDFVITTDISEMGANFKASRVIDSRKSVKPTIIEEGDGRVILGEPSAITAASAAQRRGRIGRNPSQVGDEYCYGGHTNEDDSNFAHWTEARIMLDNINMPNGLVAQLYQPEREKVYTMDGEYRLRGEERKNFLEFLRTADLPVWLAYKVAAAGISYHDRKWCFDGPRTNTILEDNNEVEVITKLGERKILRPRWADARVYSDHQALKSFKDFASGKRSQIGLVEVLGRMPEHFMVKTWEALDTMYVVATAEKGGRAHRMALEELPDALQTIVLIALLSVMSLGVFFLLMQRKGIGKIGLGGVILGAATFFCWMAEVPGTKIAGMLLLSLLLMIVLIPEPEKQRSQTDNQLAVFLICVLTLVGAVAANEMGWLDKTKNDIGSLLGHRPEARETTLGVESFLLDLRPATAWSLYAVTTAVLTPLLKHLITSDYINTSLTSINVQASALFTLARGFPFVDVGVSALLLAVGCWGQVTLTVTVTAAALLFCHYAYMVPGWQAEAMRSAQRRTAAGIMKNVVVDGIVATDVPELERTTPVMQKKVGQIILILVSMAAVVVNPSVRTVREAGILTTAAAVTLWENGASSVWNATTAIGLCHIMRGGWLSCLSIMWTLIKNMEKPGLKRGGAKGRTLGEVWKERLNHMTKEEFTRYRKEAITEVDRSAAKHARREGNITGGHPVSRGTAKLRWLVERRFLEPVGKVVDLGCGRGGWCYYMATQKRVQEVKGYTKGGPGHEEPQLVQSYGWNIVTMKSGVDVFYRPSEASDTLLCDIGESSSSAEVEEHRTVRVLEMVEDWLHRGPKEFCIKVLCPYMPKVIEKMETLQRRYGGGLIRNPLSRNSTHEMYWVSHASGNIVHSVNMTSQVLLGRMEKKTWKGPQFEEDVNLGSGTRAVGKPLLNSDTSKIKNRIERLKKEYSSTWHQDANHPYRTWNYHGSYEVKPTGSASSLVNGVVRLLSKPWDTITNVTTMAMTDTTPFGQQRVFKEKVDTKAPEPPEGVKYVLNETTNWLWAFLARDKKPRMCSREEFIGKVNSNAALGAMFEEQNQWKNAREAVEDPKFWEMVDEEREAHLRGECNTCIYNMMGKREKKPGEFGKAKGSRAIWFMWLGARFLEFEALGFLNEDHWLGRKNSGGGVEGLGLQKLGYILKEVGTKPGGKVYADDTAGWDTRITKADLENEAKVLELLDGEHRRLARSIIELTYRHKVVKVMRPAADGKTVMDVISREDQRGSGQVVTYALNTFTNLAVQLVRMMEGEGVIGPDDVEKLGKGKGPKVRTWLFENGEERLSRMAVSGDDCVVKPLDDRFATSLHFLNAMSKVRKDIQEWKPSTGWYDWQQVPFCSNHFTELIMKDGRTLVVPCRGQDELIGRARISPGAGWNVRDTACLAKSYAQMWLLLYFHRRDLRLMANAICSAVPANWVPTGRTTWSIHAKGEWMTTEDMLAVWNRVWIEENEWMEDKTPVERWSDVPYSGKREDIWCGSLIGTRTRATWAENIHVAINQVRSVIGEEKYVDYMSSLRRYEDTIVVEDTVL

For `N=C(N)Nc1ccc(OC(=O)c2ccc(NC(=N)N)cc2)cc1`, the inhibition in series [1] turned out to be 98.1%; in series [2], 29.8%; at Prothrombin [3], 99%; on Trypsin [4], 100%; in [8] it was 100%. In addition, the IC50 was 14.4 µM against Genome polyprotein, 4.08 µM against Prothrombin [5] and 0.00135 µM against Trypsin [6]. Besides, in series [7], the TDI entry is “Active”. Further, the outcome in series [9] was Active. Moreover, the result (in series [10]; with dengue virus type 2) was inactive. The half-life in series [11] turned out to be 16.8 min; in series [12] it was 17.8 min. The Stability entry in series [13] and in [14] was “Stable” throughout. For the same compound, the inhibition entry in series [15] was “Active”. Further, the inhibition entry in series [16] and in series [17] was “inactive” each time.

For orientation: inhibition means how much of the control response was suppressed. Broadly, the IC50 is the point on the concentration scale where inhibition reaches its midpoint. By half-life is commonly meant the time in which the quantity being followed falls by half.

Source of the values: ChEMBL document CHEMBL4350980, “Synthesis and structure-activity relationships of small-molecular di-basic esters, amides and carbamates as flaviviral protease inhibitors” (Eur J Med Chem, 2019).
